ChEMBL document CHEMBL1140514, “Some new acyclic nucleotide analogues as antiviral prodrugs: synthesis and bioactivities in vitro” (Bioorg Med Chem Lett, 2007)

Tests used:
[1] = test system: HepG2; experiment: Cytotoxicity against human HepG2 cells after 9 days by MTT assay; type: functional, cell-based; details: HepG2, 216 h
[2] = test system: Hepatitis B virus; experiment: Antiviral activity against Hepatitis B virus infected human HepG2 cells after 9 days by MTT assay; type: functional, organism-based; details: HepG2, 216 h
[3] = test system: Human immunodeficiency virus 1; experiment: Antiviral activity against HIV1 3B in MT4 cells after 4 days by MTT assay; type: functional
[4] = Therapeutic index, Ratio of TC50 for human HepG2 cells to IC50 for HBV-infected human HepG2 cells; type: cell-based; details: HepG2 cells (TC50) and HBV-infected HepG2 cells (IC50)
[5] = Cytotoxicity against MT4 cells at 10 ug/ml after 4 days by MTT assay; type: cell-based; details: human, read-out: Inhibition

SMILES	IC50 [1]	IC50 [2]	TC50 [3]	selectivity ratio [4]	cytotoxicity at 96 h, 10 ug/ml [5]
Nc1ncnc2c1ncn2CCOCP(=O)(OCOC(=O)OC1CCCC1)OCOC(=O)OC1CCCC1.O=C(O)/C=C/C(=O)O	3.51 µM	2.46 µM	22.1 µM		
C[C@H](Cn1cnc2c(N)ncnc21)OCP(=O)(OCOC(=O)OC1CCCCC1)OCOC(=O)OC1CCCCC1.O=C(O)/C=C/C(=O)O	17.5 µM	5.94 µM	92.8 µM	15.6	
Nc1ncnc2c1ncn2CCOCP(=O)(O)OCOC(=O)OCc1ccccc1.O=C(O)/C=C/C(=O)O	> 30 µM	43 µM	0.59 10^3uM	13.7	9%
C=CCOC(=O)OCOP(=O)(O)COCCn1cnc2c(N)ncnc21.O=C(O)/C=C/C(=O)O	23.7 µM	10.6 µM	0.67 10^3uM		
C=CCOC(=O)OCOP(=O)(COCCn1cnc2c(N)ncnc21)OCOC(=O)OCC=C.O=C(O)/C=C/C(=O)O	> 30 µM	8.2 µM	24.6 µM		22.8%
Nc1ncnc2c1ncn2CCOCP(=O)(OCOC(=O)OCc1ccccc1)OCOC(=O)OCc1ccccc1.O=C(O)/C=C/C(=O)O	> 30 µM	2.15 µM	26.5 µM	12.3	24.9%
Nc1ncnc2c1ncn2CCOCP(=O)(OCOC(=O)OC1CCCCC1)OCOC(=O)OC1CCCCC1.O=C(O)/C=C/C(=O)O	23.1 µM	5.33 µM	63.2 µM	11.9	
C=CCOC(=O)OCOP(=O)(CO[C@H](C)Cn1cnc2c(N)ncnc21)OCOC(=O)OCC=C.O=C(O)/C=C/C(=O)O	1.61 µM	7.98 µM	30.9 µM		
C[C@H](Cn1cnc2c(N)ncnc21)OCP(=O)(OCOC(=O)OCc1ccccc1)OCOC(=O)OCc1ccccc1.O=C(O)/C=C/C(=O)O	> 30 µM	5.5 µM	70.1 µM	12.7	28.1%
C[C@H](Cn1cnc2c(N)ncnc21)OCP(=O)(OCOC(=O)OC1CCCC1)OCOC(=O)OC1CCCC1.O=C(O)/C=C/C(=O)O	> 30 µM	7.2 µM	80.2 µM		25.5%
Nc1ncnc2c1ncn2CCOCP(=O)(O)O [ADEFOVIR]		42.1 µM			
Nc1nc(=O)n([C@@H]2CS[C@H](CO)O2)cc1F [EMTRICITABINE]	27.7 µM				
C[C@H](Cn1cnc2c(N)ncnc21)OCP(=O)(O)O [TENOFOVIR ANHYDROUS]		12.3 µM	0.39 10^3uM	31.4	
CC(C)OC(=O)OCOP(=O)(CO[C@H](C)Cn1cnc2c(N)ncnc21)OCOC(=O)OC(C)C.O=C(O)/C=C/C(=O)O [TENOFOVIR DISOPROXIL FUMARATE]	2.31 µM	5.1 µM	55.2 µM	10.8	
